# Source: ChEMBL document CHEMBL4765282, “Design, synthesis and biological evaluation of 1H-pyrazolo [3,4-d]pyrimidine derivatives as PAK1 inhibitors that trigger apoptosis, ER stress and anti-migration effect in MDA-MB-231 cells” (Eur J Med Chem, 2020)
# Activity calls are given as the source filed them. The rule behind the calls is not given here.
# Assays:
# Homo sapiens = species on record: Homo sapiens; test: Selectivity ratio of IC50 for inhibition of PAK2 (unknown origin) to IC50 for inhibition of PAK1 (unknown origin)
# [1] = target: T1, Serine/threonine-protein kinase PAK 1 (Homo sapiens, UniProt Q13153); test: Inhibition of PAK1 (unknown origin) […] measured after 40 mins by ADP-glo kinase assay
# [2] = target: Serine/threonine-protein kinase PAK 3 (Homo sapiens, UniProt O75914); test: Inhibition of PAK3 (unknown origin) […] measured after 40 mins by ADP-glo kinase assay
# MDA-MB-231 [3] = test: Down regulation of PAK1 expression in human MDA-MB-231 cells at 20 uM measured after 24 hrs by immunofluorescence analysis; type: functional, cell-based
# [4] = target: T1, Serine/threonine-protein kinase PAK 1; test: Inhibition of PAK1 phosphorylation at Thr212 residues in human MDA-MB-231 cells at 10 to 40 uM measured after 24 hrs by Western blot analysis; type: cell-based; settings: dose 10-40 µM
# [5] = target: T1, Serine/threonine-protein kinase PAK 1; test: Inhibition of PAK1 in human MDA-MB-231 cells assessed as reduction in ERK expression at 10 to 40 uM measured after 24 hrs by Western blot analysis; type: cell-based; settings: dose 10-40 µM
# [6] = target: T1, Serine/threonine-protein kinase PAK 1; test: Inhibition of PAK1 in human MDA-MB-231 cells assessed as reduction in ERK1/2 phosphorylation at Thr202/Tyr204 residues at 10 to 40 uM measured after 24 hrs by Western blot analysis; type: cell-based; settings: dose 10-40 µM
# MDA-MB-231 [7] = test: Induction of apoptosis in human MDA-MB-231 cells assessed as increase in DNA fragmentation at 10 to 40 uM measured after 24 hrs by Hoechst 33258 staining based assay; type: functional, cell-based; settings: dose 10-40 µM
# MDA-MB-231 [8] = test: Induction of apoptosis in human MDA-MB-231 cells assessed as increase in late apoptosis measured after 24 hrs by Annexin V-FITC/propidium iodide staining based flow cytometry; type: functional, cell-based
# MDA-MB-231 [9] = test: Induction of apoptosis in human MDA-MB-231 cells assessed as late apoptotic cells at 10 uM measured after 24 hrs by Annexin V-FITC/propidium iodide staining based flow cytometry (reference value: 0.57%); type: functional
# MDA-MB-231 [10] = test: Induction of apoptosis in human MDA-MB-231 cells assessed as necrotic cells at 20 uM measured after 24 hrs by Annexin V-FITC/propidium iodide staining based flow cytometry (reference value: 0.16%); type: functional
# MDA-MB-231 [11] = test: Induction of apoptosis in human MDA-MB-231 cells assessed as viable cells at 40 uM measured after 24 hrs by Annexin V-FITC/propidium iodide staining based flow cytometry (reference value: 98.46%); type: functional; settings: read-out: Activity
# MDA-MB-231 [12] = test: Induction of apoptosis in human MDA-MB-231 cells assessed as late apoptotic cells at 40 uM measured after 24 hrs by Annexin V-FITC/propidium iodide staining based flow cytometry (reference value: 0.57%); type: functional
# MDA-MB-231 [13] = test: Induction of apoptosis in human MDA-MB-231 cells assessed as necrotic cells at 40 uM measured after 24 hrs by Annexin V-FITC/propidium iodide staining based flow cytometry (reference value: 0.16%); type: functional
# MDA-MB-231 [14] = test: Induction of apoptosis in human MDA-MB-231 cells assessed as down regulation of Bcl-2 expression at 10 to 40 uM measured after 24 hrs by Western blot analysis; type: functional, cell-based; settings: dose 10-40 µM
# MDA-MB-231 [15] = test: Induction of apoptosis in human MDA-MB-231 cells assessed as increase in PARP cleavage at 10 to 40 uM measured after 24 hrs by Western blot analysis; type: functional, cell-based; settings: dose 10-40 µM
# [16] = Effect on HERPUD1 gene expression in human MDA-MB-231 cells by Trizol reagent based RNA sequencing analysis relative to control; type: functional
# [17] = Effect on DDIT4 gene expression in human MDA-MB-231 cells by Trizol reagent based RNA sequencing analysis relative to control; type: functional
# [18] = Effect on PPP1R15A gene expression in human MDA-MB-231 cells by Trizol reagent based RNA sequencing analysis relative to control; type: functional
# [19] = Effect on GARS gene expression in human MDA-MB-231 cells by Trizol reagent based RNA sequencing analysis relative to control; type: functional
# [20] = Effect on HYOU1 gene expression in human MDA-MB-231 cells by Trizol reagent based RNA sequencing analysis relative to control; type: functional
# [21] = Effect on DDIT3 gene expression in human MDA-MB-231 cells by Trizol reagent based RNA sequencing analysis relative to control; type: functional
# [22] = Effect on MIA2 gene expression in human MDA-MB-231 cells by Trizol reagent based RNA sequencing analysis relative to control; type: functional
# [23] = Effect on JUN gene expression in human MDA-MB-231 cells by Trizol reagent based RNA sequencing analysis relative to control; type: functional
# [24] = Effect on CASC10 gene expression in human MDA-MB-231 cells by Trizol reagent based RNA sequencing analysis relative to control; type: functional
# [25] = Effect on ALPP gene expression in human MDA-MB-231 cells by Trizol reagent based RNA sequencing analysis relative to control; type: functional
# [26] = Effect on BEX2 gene expression in human MDA-MB-231 cells by Trizol reagent based RNA sequencing analysis relative to control; type: functional
# [27] = Effect on MMP3 gene expression in human MDA-MB-231 cells by Trizol reagent based RNA sequencing analysis relative to control; type: functional
# [28] = Effect on CDHR4 gene expression in human MDA-MB-231 cells by Trizol reagent based RNA sequencing analysis relative to control; type: functional; settings: dose 10-40 µM; time 24 hrs
# MDA-MB-231 [29] = test: Upregulation of phosphorylated PERK Thr980 expression in human MDA-MB-231 cells at 10 to 40 uM measured after 24 hrs by Western blot analysis; type: functional, cell-based; settings: dose 10-40 µM
# MDA-MB-231 [30] = test: Upregulation of CHOP expression in human MDA-MB-231 cells at 10 to 40 uM measured after 24 hrs by Western blot analysis; type: functional, cell-based; settings: dose 10-40 µM
# MDA-MB-231 [31] = test: Upregulation of PERK expression in human MDA-MB-231 cells transfected with si-PAK1 at 10 uM measured after 24 hrs by Western blot analysis; type: functional, cell-based
# MDA-MB-231 [32] = test: Inhibition of AKT phosphorylation at Ser473 residue in human MDA-MB-231 cells at 20 uM measured after 24 hrs by immunofluorescence analysis; type: cell-based
# MDA-MB-231 [33] = test: Inhibition of PI3K/AKT/mTOR signaling in human MDA-MB-231 cells assessed as reduction in mTOR phosphorylation at 10 to 40 uM after 24 hrs by Western blot analysis; type: cell-based; settings: dose 10-40 µM
# [34] = target: Mitogen-activated protein kinase 8/9 (Homo sapiens) (UniProt P45983+P45984); test: Inhibition of JNK1/2 in human MDA-MB-231 cells assessed as reduction in c-JUN phosphorylation at Ser63 residues at 10 to 40 uM after 24 hrs by Western blot analysis; type: cell-based; settings: dose 10-40 µM
# MDA-MB-231 [35] = test: Inhibition of human MDA-MB-231 cell migration measured after 24 hrs by phase contrast microscopy based transwell assay; type: functional
# MDA-MB-231 [36] = test: Up regulation of FOXO3a expression in human MDA-MB-231 cells at 10 to 40 uM measured after 24 hrs by Western blot analysis; type: functional, cell-based; settings: dose 10-40 µM
# MDA-MB-231 [37] = test: Up regulation of MMP-2 expression in human MDA-MB-231 cells at 10 to 40 uM measured after 24 hrs by Western blot analysis; type: functional, cell-based; settings: dose 10-40 µM
# T1 sequence (Q13153 whole entry): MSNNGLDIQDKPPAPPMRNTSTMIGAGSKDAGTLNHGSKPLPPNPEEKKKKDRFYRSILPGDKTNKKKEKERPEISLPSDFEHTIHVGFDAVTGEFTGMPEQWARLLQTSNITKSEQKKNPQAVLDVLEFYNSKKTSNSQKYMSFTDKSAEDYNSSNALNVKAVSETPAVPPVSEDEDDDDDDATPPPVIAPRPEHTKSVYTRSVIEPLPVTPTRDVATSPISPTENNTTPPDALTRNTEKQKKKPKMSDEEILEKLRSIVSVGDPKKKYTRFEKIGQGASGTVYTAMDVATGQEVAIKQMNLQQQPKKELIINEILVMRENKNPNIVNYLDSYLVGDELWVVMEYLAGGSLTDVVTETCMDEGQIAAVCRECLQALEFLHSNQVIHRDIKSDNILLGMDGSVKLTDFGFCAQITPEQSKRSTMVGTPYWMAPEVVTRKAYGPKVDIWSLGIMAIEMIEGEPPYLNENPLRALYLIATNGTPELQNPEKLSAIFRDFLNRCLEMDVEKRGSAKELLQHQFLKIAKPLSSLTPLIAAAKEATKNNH
# Chain of Serine/threonine-protein kinase PAK 3 (O75914 whole entry): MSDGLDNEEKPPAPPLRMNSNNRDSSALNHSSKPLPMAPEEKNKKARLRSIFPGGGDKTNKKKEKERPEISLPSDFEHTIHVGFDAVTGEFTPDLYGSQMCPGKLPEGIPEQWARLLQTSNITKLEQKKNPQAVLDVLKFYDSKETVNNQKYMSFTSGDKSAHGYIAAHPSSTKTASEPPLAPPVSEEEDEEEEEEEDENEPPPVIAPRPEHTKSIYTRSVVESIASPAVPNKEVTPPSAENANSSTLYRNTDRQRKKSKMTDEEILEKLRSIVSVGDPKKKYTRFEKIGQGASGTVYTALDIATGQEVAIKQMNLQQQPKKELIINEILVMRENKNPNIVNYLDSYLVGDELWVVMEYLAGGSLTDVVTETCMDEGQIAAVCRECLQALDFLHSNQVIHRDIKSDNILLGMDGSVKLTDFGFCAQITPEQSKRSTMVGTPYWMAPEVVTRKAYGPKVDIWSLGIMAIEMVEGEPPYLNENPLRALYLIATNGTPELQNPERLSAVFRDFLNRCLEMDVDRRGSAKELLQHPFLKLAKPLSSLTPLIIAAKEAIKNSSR
# Chain of Mitogen-activated protein kinase 8/9 (Homo sapiens) (P45983 whole entry, looked up): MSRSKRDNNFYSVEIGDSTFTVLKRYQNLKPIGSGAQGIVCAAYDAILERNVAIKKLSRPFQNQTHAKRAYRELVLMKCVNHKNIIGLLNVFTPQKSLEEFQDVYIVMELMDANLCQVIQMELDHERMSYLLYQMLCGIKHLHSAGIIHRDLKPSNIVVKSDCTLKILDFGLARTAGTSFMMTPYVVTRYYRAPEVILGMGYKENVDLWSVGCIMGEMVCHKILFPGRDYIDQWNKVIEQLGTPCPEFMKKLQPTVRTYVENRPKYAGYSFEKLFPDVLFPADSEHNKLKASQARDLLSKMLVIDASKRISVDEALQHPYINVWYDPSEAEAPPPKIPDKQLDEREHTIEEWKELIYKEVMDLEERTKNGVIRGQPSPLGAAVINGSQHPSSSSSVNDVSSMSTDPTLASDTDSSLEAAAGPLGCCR
# Chain of Mitogen-activated protein kinase 8/9 (Homo sapiens) (P45984 whole entry, looked up): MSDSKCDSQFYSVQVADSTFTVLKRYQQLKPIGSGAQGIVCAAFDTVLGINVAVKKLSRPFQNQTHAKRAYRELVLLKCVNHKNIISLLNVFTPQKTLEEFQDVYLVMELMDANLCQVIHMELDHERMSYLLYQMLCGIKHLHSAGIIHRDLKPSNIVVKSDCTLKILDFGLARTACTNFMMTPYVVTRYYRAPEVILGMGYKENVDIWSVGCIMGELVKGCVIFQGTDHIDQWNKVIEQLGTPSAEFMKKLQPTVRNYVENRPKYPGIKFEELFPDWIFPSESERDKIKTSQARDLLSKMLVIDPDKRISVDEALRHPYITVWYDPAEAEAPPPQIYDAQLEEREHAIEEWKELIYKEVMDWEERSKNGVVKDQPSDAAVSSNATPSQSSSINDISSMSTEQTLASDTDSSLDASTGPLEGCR
compound,measurement,setting,value
O=C(Nc1cc(C(F)(F)F)cc(C(F)(F)F)c1)NC1CCN(c2ncnc3[nH]ncc23)CC1,Ratio IC50,Homo sapiens,5
same,IC50,[1],170 nM
same,IC50,[2],1370 nM
same,Activity,MDA-MB-231 [3],Active
same,inhibition,[4],Active
same,inhibition,[5],Active
same,inhibition,[6],Active
same,Activity,MDA-MB-231 [7],Active
same,Activity,MDA-MB-231 [8],Dose-dependent effect
same,Activity,MDA-MB-231 [9],3.22%
same,Activity,MDA-MB-231 [10],0.59%
same,viability at 40 µM,MDA-MB-231 [11],72.2%
same,Activity,MDA-MB-231 [12],12.06%
same,Activity,MDA-MB-231 [13],0.91%
same,Activity,MDA-MB-231 [14],Active
same,Activity,MDA-MB-231 [15],Active
same,fold change (FC),[16],>2
same,fold change (FC),[17],>2
same,fold change (FC),[18],>2
same,fold change (FC),[19],>2
same,fold change (FC),[20],>2
same,fold change (FC),[21],>2
same,fold change (FC),[22],>2
same,fold change (FC),[23],>2
same,fold change (FC),[24],>2
same,fold change (FC),[25],>2
same,fold change (FC),[26],>2
same,fold change (FC),[27],>2
same,fold change (FC),[28],>2
same,Activity,MDA-MB-231 [29],Active
same,Activity,MDA-MB-231 [30],Active
same,Activity,MDA-MB-231 [31],inactive
same,inhibition,MDA-MB-231 [32],Active
same,inhibition,MDA-MB-231 [33],Active
same,inhibition,[34],Active
same,inhibition,MDA-MB-231 [35],Active
same,Activity,MDA-MB-231 [36],Active
same,Activity,MDA-MB-231 [37],Active
